Data published in patent US11453671B2, “Pyrazolopyrimidine inhibitors of JAK kinases and uses thereof” (Genentech, Inc., priority 2020, dated 2022).
Read-outs that look alike come from different tables or passages of the source.

Key:
[1] = Mouse lung tissue binding (equilibrium dialysis, RED); format: in vitro ADME; conditions: for Mouse LTB %: mouse lung tissue binding, % bound (Table 3); for Lung tissue binding, %: Table 5, sulfone-sulfide analog pairs
Protocol: Mouse lung tissue binding. A high bound fraction or percentage of JAK1/JAK2 inhibitors to lung tissue may be undesirable since it can reduce the amount of free drug available to inhibit JAK1 or JAK2.
(a) Tissue binding experiments were performed in triplicate (n=3) using a Single-Use RED Plate by following the standard protocol. Initially, individual drugs were spiked to tissue homogenates (pH 7.4) to achieve a final concentration of 1 μM, and then 300 μL of drug-tissue homogenate mixtures were transferred to the donor wells of the RED plate which was pre-loaded with 500 μL phosphate buffer saline (133 mM) on the receiver wells. The RED plate was sealed with a gas permeable membrane and placed in a shaking incubator (450 rpm, VWR Symphony™) for 6 hr at 37° C. with 5% CO2. At the end of incubation, aliquots of 30 μL samples were taken out of the RED device and matrix equalized with an equal volume of tissue homogenates or buffer, and resulting samples were then immediately quenched with ice cold acetonitrile (sample:acetonitrile 1:4) containing either propranolol or labetalol as an internal standard. After shaking for 15 min at 500 rpm on a Thermo Scientific Compact Digital MicroPlate Shaker, all samples were then subjected to centrifugation at 3700 rpm for 15 min (Beckman Coulter Allegra X 12R) to remove plasma protein. Subsequently, supernatants were collected and then diluted with an equal volume of water prior to LC-MS/MS analysis.
(b) In an alternate procedure, the extent of lung tissue binding of test compound to mouse lung homogenate may also be determined by equilibrium dialysis using Pierce RED (rapid equilibrium dialysis) devices (Fisher Scientific 89811 & 89809). A 10 mM solution of compound in DMSO was prepared and diluted to 1 mM with DMSO. An aliquot of this 1 mM (4 μL) was added into lung homogenate (dilution factor of 1:9, lung tissue:potassium phosphate buffer (0.05 M, pH 7.4)) to give a final compound incubation concentration of 5 μM with solvent accounting for 0.5% (v/v) of the final incubation volume.
For each assay, the percentage lung tissue bound was determined in triplicate. Lung homogenate (200 μL) was loaded into one side of a RED device insert, in triplicate, and 350 μL of potassium phosphate buffer was loaded into the other side. The RED devices were sealed and incubated for 4 hours at ca. 37° C. on an orbital shaker (˜150 rpm).
Following incubation, an aliquot of lung homogenate (8 μL) and an aliquot of dialysate (72 μL) were matrix matched (lung homogenate with 72 μL phosphate buffer, dialysate with 8 μL lung homogenate) ahead of analysis. Protein was precipitated from the samples with the addition of 160 μL of acetonitrile containing internal standard. The same matrix matching and protein precipitation procedure was performed on lung homogenate aliquots sampled at the start of the experiment (t=0 min samples), for the assessment of the mass balance. The quenched samples were centrifuged (4000 rpm, 30 min, 4° C.) and the resultant supernatant diluted with water (3:1 (v/v), supernatant: water) and the samples analysed for parent compound by liquid chromatography mass spectrometry assay.
The unbound fraction (fu) in lung homogenate was determined from the ratio of the dialysate to homogenate peak area, corrected to take into account the lung homogenate dilution (D) to enable an estimate of whole lung tissue binding using the following equations: Undiluted fu=(1/D)/[((1/Apparent fu)−1)+(1/D)] Corrected fraction bound (%)=(1-undiluted fu)*100

[2] = tested on: JAK1: IL-13-stimulated STAT6 phosphorylation in BEAS-2B cells; assay: P-STAT6 BEAS-2B+IL-13 Cell Assay; format: cell-based, human; conditions: IL-13 stimulation, read-out: Cellular JAK1 PSTAT6 BEAS2B + IL13 IC50
Summary of the method: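 BEAS-2B cells in BEGM preincubated 1 h at 37 °C with 10-point, 1:2 compound dilutions, then stimulated 15 min with IL-13 (250 ng/mL stock). Lysate pSTAT6 (Tyr641) captured on total-STAT6 antibody and read by MSD electrochemiluminescence; IC50 from four-parameter logistic fit.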

[3] = target: Recombinant human JAK2 kinase domain protein (Residues 812-1132) (Homo sapiens, UniProt O60674); assay: JAK2 biochemical assay (microfluidic mobility shift, peptide phosphorylation); conditions: Enzyme JAK2 Ki (nM), 25 μM ATP, 0.2 nM total JAK2
Sequence of Recombinant human JAK2 kinase domain protein (Residues 812-1132) (O60674 812-1132): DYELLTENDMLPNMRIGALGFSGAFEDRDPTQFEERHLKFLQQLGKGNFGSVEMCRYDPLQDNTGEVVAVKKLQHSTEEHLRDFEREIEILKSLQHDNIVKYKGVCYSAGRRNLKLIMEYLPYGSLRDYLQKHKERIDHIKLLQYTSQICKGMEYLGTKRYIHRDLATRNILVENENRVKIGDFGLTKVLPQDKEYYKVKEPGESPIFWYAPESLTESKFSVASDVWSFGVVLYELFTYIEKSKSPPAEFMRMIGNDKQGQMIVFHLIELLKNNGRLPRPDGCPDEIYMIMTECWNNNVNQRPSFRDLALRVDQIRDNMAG

[4] = target: T1, recombinant human JAK1 kinase domain protein (Residues 854-1154) (Homo sapiens, UniProt P23458); assay: JAK1 biochemical assay (microfluidic mobility shift, peptide phosphorylation); conditions: 25 μM ATP, 1 nM total JAK1; read-out: Enzyme JAK1 Ki
T1 construct: human JAK1 kinase domain protein (Residues 854-1154); purchased Proteros Biostructures GmbH (Martinsried, Germany); host or cells: insect cells
T1 sequence (P23458 854-1154): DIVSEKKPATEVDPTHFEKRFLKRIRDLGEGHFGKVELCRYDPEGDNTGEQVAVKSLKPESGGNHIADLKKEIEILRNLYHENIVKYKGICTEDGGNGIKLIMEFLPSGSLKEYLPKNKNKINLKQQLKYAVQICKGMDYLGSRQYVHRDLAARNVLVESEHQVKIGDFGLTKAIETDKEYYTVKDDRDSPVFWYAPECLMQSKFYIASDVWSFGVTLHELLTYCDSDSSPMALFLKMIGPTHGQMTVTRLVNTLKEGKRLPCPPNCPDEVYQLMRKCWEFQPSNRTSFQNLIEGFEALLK
From the text: JAK1 and JAK2 Biochemical Assays

[5] = tested on: JAK1 pathway: P-STAT6 in TF-1 human erythroleukemia cells + IL-13; assay: P-STAT6 TF-1+Interleukin-13 (IL-13) assay; format: cell-based; conditions: Homo sapiens, TF-1, TF-1 cells, IL-13 stimulation; read-out: Cellular JAK1 PSTAT6 TF-1 + IL13 IC50
Protocol: (§1) TF-1 human erythroleukemia cells (ATCC®; Manassas, Va.; Catalog No. CRL-2003™) were grown in Roswell Park Memorial Institute (RPMI) medium supplemented with 10% heat-inactivated fetal bovine serum (FBS), 2 ng/mL granulocyte-macrophage colony-stimulating factor, 1×non-essential amino acids (NEAA), and 1 mM sodium pyruvate. The day before the assay, the cultures were transferred to Opti-MEM™, 1×NEAA, 1 mM sodium pyruvate, and 0.5% charcoal-stripped FBS (starve medium). Inhibitor stock solutions (5 mM in DMSO) were serially diluted 1:2 in DMSO to generate a 10-point concentration titration (at 500×test concentration), which was further diluted by a 50-fold dilution in Assay Medium (RPMI containing 1×NEAA and 1 mM sodium pyruvate) to generate a 10×concentration titration (in 2% DMSO). The cells (300,000 cells/well in 35 μL of Assay Medium) were seeded in 384-well Greiner plates. Diluted inhibitor at 10×concentration (5 μL) was added to the cells and the plates were incubated for 30 minutes at 37° C. in a humidified incubator. Cells were stimulated with the human recombinant cytokine at the respective EC90 concentrations, as previously determined for each individual lot. For the phosphorylated signal transducer and activator of transcription 6 (P-STAT6) TF-1+Interleukin-13 (IL-13) assay, 10 μL of 250 ng/mL IL-13 (R&D Systems; Minneapolis, Minn.) was added to the cells, which were then incubated for 10 minutes at 37° C. For the P-STAT5 TF-1+Erythropoietin (EPO) assay, 10 μL of 110 IU/mL EPO (Gibco Life Technologies, Catalog No. PHC2054) was added to the cells, which were then incubated for 30 min at 37° C. For both assays, the incubation was followed by addition to the cells of 5 μL of ice-cold 10× cell lysis buffer (Cell Signaling Technologies; Danvers, Mass.; Catalog No. 9803S) containing 1 mM phenylmethylsulfonyl fluoride (PMSF). Assay plates were frozen at −80° C. for a minimum of 1 horn. In the IL-13 assay, P-STAT6 was measured by coating goat anti-rabbit (GAR) plates (Meso Scale Discovery [MSD]; Rockville, Md.; Catalog No. MSD L21RA-1) with rabbit anti-human total STAT6 antibody (Cell Signaling Technologies; Catalog No. 9362S), incubating the cell lysates in the coated plates overnight at 4° C., and then detecting with mouse anti-P-STAT6 (Tyr641) Clone 16E12 antibody (MilliporeSigma; Burlington, Mass.; Catalog No. 05-590, custom labeled by MSD with SULFO-tag) using standard MSD plate processing, washing, and detection protocols. In the EPO assay, P-STAT5 was detected using the phospho-STAT5a,b Whole Cell Lysate Kit (MSD; Catalog No. K150IGD-1). The electrochemiluminescence (ECL) signal of wells was read on the MESO SECTOR S600 (MSD) reader.

[6] = tested on: JAK2 pathway: P-STAT5 in TF-1 human erythroleukemia cells + EPO; assay: P-STAT5 TF-1+Erythropoietin (EPO) assay; format: cell-based; conditions: EPO stimulation, read-out: Cellular JAK2 PSTAT5 TF-l + EPO IC50
Protocol: as §1

Structure (SMILES) | Mouse LTB % [1] [%] | Ki [3] [nM] | Ki [4] [nM] | Lung tissue binding, % [1] [%] | IC50 [5] [nM] | IC50 ([6]; TF-1 cells) [nM] | IC50 ([6]; Homo sapiens, TF-1, TF-1 cells) [nM] | IC50 ([2]; Homo sapiens, BEAS-2B) [nM] | IC50 [2] [nM]
CNCCn1cc(S(=O)(=O)c2ccc(OC(F)F)c(-c3nn(C)cc3NC(=O)c3cnn4cccnc34)c2)cn1 [Example 48, N-[3-[2-(difluoromethoxy)-5-[1-[2-(methylamino)ethyl]pyrazol-4-yl]sulfonyl-phenyl]-1-methyl-pyrazol-4-yl]pyrazolo[1,5-a]pyrimidine-3-carboxamide] | 91.3 | 0.39 | 0.52 | – | – | – | – | 130 | –
Cn1cc(NC(=O)c2cnn3cccnc23)c(-c2cc(S(=O)(=O)C3CCCNC3)ccc2OC(F)F)n1 (single isomer, unassigned) [Example 36, N-[3-[2-(difluoromethoxy)-5-(3-piperidylsulfonyl)phenyl]-1-methyl-pyrazol-4-yl]pyrazolo[1,5-a]pyrimidine-3-carboxamide] | – | 1.1 | 1.8 | – | 71 | 120 | – | – | –
C[C@@H](Cn1cc(S(=O)(=O)c2ccc(OC(F)F)c(-c3nn(C)cc3NC(=O)c3cnn4cccnc34)c2)cn1)N(C)C [Example 58, N-[3-[2-(difluoromethoxy)-5-[1-[(2S)-2-(dimethylamino)propyl]pyrazol-4-yl]sulfonyl-phenyl]-1-methyl-pyrazol-4-yl]pyrazolo[1,5-a]pyrimidine-3-carboxamide] | – | 0.86 | 0.89 | – | 24 | – | 32 | 40 | –
Cn1cc(NC(=O)c2cnn3cccnc23)c(-c2cc(S(=O)(=O)c3cccnc3)ccc2OC(F)F)n1 [Example 42, N-[3-[2-(difluoromethoxy)-5-(3-pyridylsulfonyl)phenyl]-1-methyl-pyrazol-4-yl]pyrazolo[1,5-a]pyrimidine-3-carboxamide] | – | 0.24 | 0.42 | – | 2.6 | – | 21 | 30 | –
CN(C)CCn1cc(NC(=O)c2cnn3cccnc23)c(-c2cc(S(=O)(=O)C3CC3)ccc2OC(F)F)n1 [Example 50, N-[3-[5-cyclopropylsulfonyl-2-(difluoromethoxy)phenyl]-1-[2-(dimethylamino)ethyl]pyrazol-4-yl]pyrazolo[1,5-a]pyrimidine-3-carboxamide] | – | 1.9 | 1.7 | – | 27 | – | 160 | 50 | –
CC(C)S(=O)(=O)c1ccc(OC(F)F)c(-c2nn(C)cc2NC(=O)c2cnn3cccnc23)c1 [Example 1, N-[3-[2-(difluoromethoxy)-5-isopropylsulfonyl-phenyl]-1-methyl-pyrazol-4-yl]pyrazolo[1,5-a]pyrimidine-3-carboxamide] | – | 0.25 | 0.56 | – | 6.3 | – | 12 | 31 | –

Now from value to compound, other results behind:

Mouse LTB % [1] [%] | Ki [3] [nM] | Ki [4] [nM] | Lung tissue binding, % [1] [%] | IC50 [5] [nM] | IC50 ([6]; TF-1 cells) [nM] | IC50 ([6]; Homo sapiens, TF-1, TF-1 cells) [nM] | Structure (SMILES) | IC50 ([2]; Homo sapiens, BEAS-2B) [nM] | IC50 [2] [nM]
– | – | – | 97 | – | – | – | Cn1cc(Sc2ccc(OC(F)F)c(-c3nn(C)cc3NC(=O)c3cnn4cccnc34)c2)cn1 [reference compound] | – | –
78.4 | – | – | – | – | – | – | CC(O)C(C)S(=O)(=O)c1ccc(OC(F)F)c(-c2nn(C)cc2NC(=O)c2cnn3cccnc23)c1 (single isomer, unassigned) [Example 69, N-[3-[2-(difluoromethoxy)-5-(2-hydroxy-1-methyl-propyl)sulfonyl-phenyl]-1-methyl-pyrazol-4-yl]pyrazolo[1,5-a]pyrimidine-3-carboxamide] | – | 77
– | 2.5 | 1.1 | – | 24 | – | 170 | CN1CCC[C@@H]1Cn1cc(NC(=O)c2cnn3cccnc23)c(-c2cc(S(=O)(=O)C3CC3)ccc2OC(F)F)n1 (racemic) [Example 60, N-[3-[5-cyclopropylsulfonyl-2-(difluoromethoxy)phenyl]-1-[[rac-(2R)-1-methylpyrrolidin-2-yl]methyl]pyrazol-4-yl]pyrazolo[1,5-a]pyrimidine-3-carboxamide] | 44 | –
– | – | – | 96.9 | – | – | – | CSc1ccc(OC(F)F)c(-c2nn(CC#N)cc2NC(=O)c2cnn3cccnc23)c1 [reference compound] | – | –
– | – | – | 97.4 | – | – | – | Cn1cc(NC(=O)c2cnn3cccnc23)c(-c2cc(SC3COC3)ccc2OC(F)F)n1 [reference compound] | – | –
– | 0.77 | 0.81 | – | 190 | – | 200 | CN1CC(n2cc(S(=O)(=O)c3ccc(OC(F)F)c(-c4nn(C)cc4NC(=O)c4cnn5cccnc45)c3)cn2)C1 [Example 61, N-[3-[2-(difluoromethoxy)-5-[1-(1-methylazetidin-3-yl)pyrazol-4-yl]sulfonyl-phenyl]-1-methyl-pyrazol-4-yl]pyrazolo[1,5-a]pyrimidine-3-carboxamide] | 34 | –
